Structures can show the parent of a compound that is named as a salt.
melting point | SMILES
186 to 187 °C | O=C(NC1CN2CCC1CC2)OCc1ccc2c(c1)OCO2 (centres unmarked) (as salt: hydrochloride)
211 to 212 °C | COc1cc(COC(=O)NC2CN3CCC2CC3)cc(OC)c1OC (centres unmarked) (as salt: hydrochloride)

— patent US6780861B2, “Azabicyclic carbamates and their use as α-7 nicotinic acetylcholine receptor agonists” (Novartis AG, priority 2000, dated 2004)
